In patent publication US9255100B2 (BAYER INTELLECTUAL PROPERTY GMBH, priority 2010, dated 2016):

target: T1, N-terminally GST-tagged human full length recombinant Mps-1 kinase (Homo sapiens, UniProt P33981); experiment: Mps-1 kinase assay (TR-FRET); assay type: biochemical; details: 10 μM ATP, 1 μM peptide substrate, 60 min at 22° C., read-out: Mps1 IC50
T1 construct: N-terminally GST-tagged human full length recombinant Mps-1 kinase; purchased Invitrogen, Karslruhe, Germany PV4071
T1 sequence (P33981 1-857): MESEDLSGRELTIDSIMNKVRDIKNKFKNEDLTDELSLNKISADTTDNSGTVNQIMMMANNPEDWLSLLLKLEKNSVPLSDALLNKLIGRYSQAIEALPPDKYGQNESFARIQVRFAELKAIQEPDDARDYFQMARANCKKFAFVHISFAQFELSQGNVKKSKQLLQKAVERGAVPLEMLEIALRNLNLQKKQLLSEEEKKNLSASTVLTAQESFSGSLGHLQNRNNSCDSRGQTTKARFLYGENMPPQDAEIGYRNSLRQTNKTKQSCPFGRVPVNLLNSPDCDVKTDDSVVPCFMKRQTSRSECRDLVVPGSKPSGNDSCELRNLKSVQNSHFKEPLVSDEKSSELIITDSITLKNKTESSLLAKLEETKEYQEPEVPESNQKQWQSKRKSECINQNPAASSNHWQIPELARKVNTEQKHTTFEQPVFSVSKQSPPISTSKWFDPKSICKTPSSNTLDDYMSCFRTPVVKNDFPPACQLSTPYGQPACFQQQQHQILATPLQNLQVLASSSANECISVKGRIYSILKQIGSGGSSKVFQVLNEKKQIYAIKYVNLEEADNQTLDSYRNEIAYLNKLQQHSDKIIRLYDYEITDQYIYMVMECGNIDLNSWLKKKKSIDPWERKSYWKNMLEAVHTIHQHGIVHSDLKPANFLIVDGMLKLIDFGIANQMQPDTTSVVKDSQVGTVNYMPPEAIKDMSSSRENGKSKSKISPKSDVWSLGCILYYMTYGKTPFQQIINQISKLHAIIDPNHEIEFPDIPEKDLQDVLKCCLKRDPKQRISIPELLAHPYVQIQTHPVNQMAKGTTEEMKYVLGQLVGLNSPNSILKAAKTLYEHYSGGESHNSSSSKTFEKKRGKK
Summary of the method: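 Read-out: TR-FRET from Europium-labelled anti-phospho(Ser/Thr) antibody to SA-XLent after 1 h detection incubation at 22° C. Inhibition of kinase activity measured.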

Compound | IC50
Cc1cc(-c2cnc3c(NCC4CC[S+]([O-])CC4)cc(Sc4ccccc4)nn23)ccc1C(=O)NC1CC1 (stereo not drawn) [Example 303B, N-cyclopropyl-2-methyl-4-[8-({[(trans)-1-oxidotetrahydro-2H-thiopyran-4-yl]methyl}amino)-6-(phenylsulfanyl)imidazo[1,2-b]pyridazin-3-yl]benzamide] | 0.2 nM

same assay, conditions: Mps1 IC50 [nM], 10 μM ATP, 1 μM peptide substrate, 60 min at 22° C.

IC50 | Compound
0.1 nM | Cc1cc(-c2cnc3c(NCCC(F)(F)F)cc(Sc4ccccc4CO)nn23)ccc1C(=O)NC1CC1 [Example 270, N-cyclopropyl-4-(6-{[2-(hydroxymethyl)phenyl]sulfanyl}-8-[(3,3,3-trifluoropropyl)amino]imidazo[1,2-b]pyridazin-3-yl)-2-methylbenzamide]
13.7 nM | CC(C)CNc1cc(-c2ccncc2)nn2c(-c3ccc(-c4cnc(C5CC5)[nH]4)cc3)cnc12 [Example 3, 3-[4-(2-Cyclopropyl-1H-imidazol-5-yl)phenyl]-N-isobutyl-6-(pyridin-4-yl) imidazo[1,2-b]pyridazin-8-amine]
1.2 nM | C/C=C(\C)c1cc(NCCC(F)(F)F)c2ncc(-c3ccc(C(=O)NC4CC4)c(C)c3)n2n1 [Example 221, 4-{6-[(2E)-but-2-en-2-yl]-8-[(3,3,3-trifluoropropyl)amino]imidazo[1,2-b]pyridazin-3-yl}-N-cyclopropyl-2-methylbenzamide]
6.9 nM | CNC(=O)c1ccc(-c2cnc3c(NCCOC)cc(Oc4ccccc4C)nn23)cc1C [Example 583, 4-{8-[(2-methoxyethyl)amino]-6-(2-methylphenoxy)imidazo[1,2-b]pyridazin-3-yl}-N,2-dimethylbenzamide]
0.6 nM | Cc1cc(-c2cnc3c(NCC4CCSCC4)cc(Oc4ccc(Cl)c(F)c4)nn23)ccc1C(=O)NC1CC1 [Example 291, 4-{6-(4-chloro-3-fluorophenoxy)-8-[(tetrahydro-2H-thiopyran-4-ylmethyl)amino]imidazo[1,2-b]pyridazin-3-yl}-N-cyclopropyl-2-methylbenzamide]
0.2 nM | Cc1ccc(Sc2cc(NCCC(F)(F)F)c3ncc(-c4ccc(C(=O)NC5CC5)c(C)c4)n3n2)c(F)c1 [Example 362, N-cyclopropyl-4-{6-[(2-fluoro-4-methylphenyl)sulfanyl]-8-[(3,3,3-trifluoropropyl)amino]imidazo[1,2-b]pyridazin-3-yl}-2-methylbenzamide]
0.4 nM | Cc1cc(-c2cnc3c(NCC(C)(C)O)cc(Nc4ccccc4F)nn23)ccc1C(=O)NC1CC1 [Example 384, N-cyclopropyl-4-{6-[(2-fluorophenyl)amino]-8-[(2-hydroxy-2-methylpropyl)amino]imidazo[1,2-b]pyridazin-3-yl}-2-methylbenzamide]
1.4 nM | CSc1cc(NCCC(F)(F)F)c2ncc(-c3ccc(C(=O)NC4CC4)c(C)c3)n2n1 [Example 203, N-cyclopropyl-2-methyl-4-{6-(methylsulfanyl)-8-[(3,3,3-trifluoropropyl)amino]imidazo[1,2-b]pyridazin-3-yl}benzamide]
1.9 nM | Cc1cc(-c2cnc3c(NCC(C)(C)O)cc(OCc4ccccc4)nn23)ccc1C(=O)NC1CC1 [Example 326, 4-{6-(benzyloxy)-8-[(2-hydroxy-2-methylpropyl)amino]imidazo[1,2-b]pyridazin-3-yl}-N-cyclo-propyl-2-methylbenzamide]
13.6 nM | Cc1cc(-c2cnc3c(NCC(C)(C)O)cc(-c4cc[nH]n4)nn23)ccc1C(=O)NC1CC1 [Example 160, N-cyclopropyl-4-{8-[(2-hydroxy-2-methylpropyl)amino]-6-(1H-pyrazol-3-yl)imidazo[1,2-b]pyridazin-3-yl}-2-methylbenzamide]
30 nM | Cc1cc(-c2cnc3c(NCC(C)(C)O)cc(Sc4ccccn4)nn23)ccc1C(=O)NC1CC1 [Example 334, N-cyclopropyl-4-{8-[(2-hydroxy-2-methylpropyl)amino]-6-(pyridin-2-yl-sulfanyl)imidazo[1,2-b]pyridazin-3-yl}-2-methyl-benzamide]
1.3 nM | Cc1ccc(Cl)cc1Nc1cc(NCCCC(F)(F)F)c2ncc(-c3ccc(C(=O)NC4CC4)c(C)c3)n2n1 [Example 451, 4-{6-[(5-chloro-2-methylphenyl)amino]-8-[(4,4,4-trifluorobutyl)amino]imidazo[1,2-b]pyridazin-3-yl}-N-cyclopropyl-2-methylbenzamide]
2.5 nM | Cc1cc(-c2cnc3c(NC[C@H]4CCCO4)cc(-c4ccncc4)nn23)ccc1C(=O)NC1CC1 [Example 35, N-cyclopropyl-2-methyl-4-[6-(pyridin-4-yl)-8-{[(2R)-tetrahydrofuran-2-ylmethyl]amino}imidazo[1,2-b]pyridazin-3-yl]benzamide]
1 nM | CNC(=O)c1ccc(-c2cnc3c(NCCOC)cc(Oc4ccc(OC)c(F)c4)nn23)cc1C [Example 586, 4-{6-(3-fluoro-4-methoxyphenoxy)-8-[(2-methoxyethyl)a-mino]imidazo[1,2-b]pyridazin-3-yl]-N,2-dimethylbenzamide]
1.5 nM | CCNC(=O)c1ccc(-c2cnc3c(NCCN4CCOCC4)cc(Oc4cc(F)ccc4C)nn23)cc1C [Example 592, N-ethyl-4-[6-(5-fluoro-2-methylphenoxy)-8-{[2-(morpholin-4-yl)ethyl]amino}imidazo[1,2-b]pyridazin-3-yl]-2-methylbenzamide]

Second part, the compound before the results:

Compound | IC50
CC(C)CNc1cc(-c2cccc(CO)c2)nn2c(-c3ccc(C(=O)NC4CC4)cc3)cnc12 [Example 103, N-cyclopropyl-4-{6-[3-(hydroxymethyl)phenyl]-8-[(2-methylpropyl)amino]imidazo[1,2-b]pyridazin-3-yl}benzamide] | < 1 nM
Cc1cc(-c2cnc3c(NCCC(F)(F)F)cc(Oc4cccc(F)c4)nn23)ccc1C(=O)NCC(C)C [Example 557, 4-{6-(3-fluorophenoxy)-8-[(3,3,3-trifluoropropyl)amino]imidazo[1,2-b]pyridazin-3-yl}-N-isobutyl-2-methylbenzamide] | 2.2 nM
Cc1cc(-c2cnc3c(NCCC(F)(F)F)cc(Oc4cccc(F)c4)nn23)ccc1C(=O)NCCC(F)(F)F [Example 554, 4-{6-(3-fluorophenoxy)-8-[(3,3,3-trifluoropropyl)amino]imidazo[1,2-b]pyridazin-3-yl}-2-methyl-N-(3,3,3-trifluoropropyl)benzamide] | 1.6 nM
Cc1ccc(F)c(Oc2cc(NCC(C)(C)O)c3ncc(-c4ccc(C(=O)NC5CC5)c(C)c4)n3n2)c1 [Example 81, N-cyclopropyl-4-{6-(2-fluoro-5-methylphenoxy)-8-[(2-hydroxy-2-methylpropyl)amino]imidazo[1,2-b]pyridazin-3-yl}-2-methylbenzamide] | 0.2 nM
Cc1cc(-c2cnc3c(NCC(C)(C)O)cc(Oc4cccc(OCC(C)(C)O)c4)nn23)ccc1C(=O)NC1CC1 [Example 275, N-cyclopropyl-4-{6-[3-(2-hydroxy-2-methylpropoxy)phenoxy]-8-[(2-hydroxy-2-methylpropyl)amino]imidazo[1,2-b]pyridazin-3-yl}-2-methylbenzamide] | 5.4 nM
Cc1cc(-c2cnc3c(NCCC(F)(F)F)cc(Oc4cncc(F)c4)nn23)ccc1C(=O)NC1CC1 [Example 464, N-cyclopropyl-4-{6-[(5-fluoropyridin-3-yl)oxy]-8-[(3,3,3-trifluoropropyl)amino]imidazo[1,2-b]pyridazin-3-yl}-2-methylbenzamide] | 0.1 nM
CC(C)(O)CNc1cc(Sc2cccc(F)c2)nn2c(-c3ccc(C(=S)NC4CC4)cc3)cnc12 [Example 246, N-cyclopropyl-4-{6-[(3-fluorophenyl)sulfanyl]-8-[(2-hydroxy-2-methylpropyl)amino]imidazo[1,2-b]pyridazin-3-yl}benzenecarbothioamide] | 0.6 nM
Cc1cc(-c2cnc3c(NCCN(C)C)cc(Oc4ccc(Cl)cc4)nn23)ccc1C(=O)NC1CC1 [Example 523, 4-[6-(4-chlorophenoxy)-8-{[2-(dimethylamino)ethyl]amino}imidazo[1,2-b]pyridazin-3-yl]-N-cyclopropyl-2-methylbenzamide] | 0.7 nM
CC(C)CNc1cc(-c2ccc(S(C)(=O)=O)cc2)nn2c(-c3ccc(C(=O)NC4CC4)cc3)cnc12 [Example 142, N-cyclopropyl-4-{8-[(2-methylpropyl)amino]-6-[4-(methylsulfonyl)phenyl]imidazo[1,2-b]pyridazin-3-yl}benzamide] | 1.4 nM
Cc1cc(-c2cnc3c(NCC(C)(C)O)cc(-c4ccnn4C)nn23)ccc1C(=O)NC1CC1 [Example 21, N-cyclopropyl-4-{8-[(2-hydroxy-2-methylpropyl)amino]-6-(1-methyl-1H-pyrazol-5-yl)imidazo[1,2-b]pyridazin-3-yl}-2-methylbenzamide] | 3.7 nM
